Data taken from patent US5965407A, “Anthracycline compound 0624” (Higeta Shoyu Co. Ltd., priority 1997, dated 1999).
≈ marks a conversion by molar mass, not a printed value.

How the values were obtained:
CHO cell line = test: Growth inhibition of CHO cells (MTT assay); assay type: cell-based; conditions: Cricetulus griseus, 72 hours, 37° C.
Experimental: (§1) Cell suspensions were prepared (at 5.6×10^6 cells/ml) by using RPMI 1640 medium for L1210 cell line, RPMI 1640 medium containing 20 μM 2-mercaptoethanol (all the media containing 10% bovine serum) for P388 cell line and an adriamycin resistant P388 cell line, Eagle's MEM medium for KB cell line, and α-MEM medium for CHO cell line.
(§2) Test samples (0624-A and 0624-B) were individually dissolved in methanol and serially diluted with the individual media in a series of 2-fold dilution starting from a concentration of 0.1 mg/ml. The cell suspensions (each of 180 μl) and each test sample (20 μl) were divided in a 96-well microtiter plate, and subjected to culturing in wet atmosphere of 5% CO2 -95% air at 37° C. 72 hours after, cell growth was determined by the calorimetric assay using 3-(4, 5-dimethyl-z-thiazolyl)-2,5-diphenyl-2H-tetrazolium bromide (MTT). More specifically, 20 μl each of 2 mg/ml MTT solution was added into each well, followed by culturing at 37° C. for 4 hours. Then, 50 μl of 50 % dimethylformamide solution containing 20% sodium dodecyl sulfate was added to each well, which was left to stand. The resulting formed violet formazan crystal was solubilized and subjected to determination of absorbance at 570 nm, by using a microplate reader (Immunoreader), which was used as the indicator of growth. […]

Bacillus subtilis PC1189 = test: Antimicrobial activity (MIC), Bacillus subtilis; assay type: cell-based; conditions: Bacillus subtilis PC1189, Muller-Hinton broth, 24 hours, 37° C.
Experimental: (§3) The antimicrobial activity of compound 0624 was confirmed through the assaying of the minimum growth inhibitory concentration (MIC).
(§4) The MICs of compound 0624 against various bacteria were determined in a Muller-Hinton broth (BBL) containing 0.2% glucose, according to the standard defined by the Japan Chemotherapy Association (The Essentials of Antibiotics, the 4-th edition, Tokyo University Press, 1992).
(§5) The test bacteria were adjusted to 1×10^8 cfu/ml in the broth, and then used as test bacteria solutions.
(§6) The test samples (compounds 0624-A and 0624-B) were, separately, dissolved in methanol and were then serially diluted with the broth in a series of 2-fold dilution, starting from a concentration of 0.1 mg/ml. Each test bacteria solution (180 μl) and each test sample (20 μl) were divided in a 96-well microtiter plate, and cultured at 37° C. After 24 hours, the MIC was observed and calculated by the eye, and the resulting MIC was defined as MIC value.

[1] = system: Micrococcus luteus IFM2066; test: Antimicrobial activity (MIC), Micrococcus luteus; assay type: cell-based; conditions: Micrococcus luteus IFM2066, Muller-Hinton broth, 24 hours, 37° C.
Experimental: as §3, §4, §5, §6

N. asteroides IFM0319 = test: Antimicrobial activity (MIC), N. asteroides; assay type: cell-based; conditions: Nocardia asteroides; N. asteroides IFM0319, Muller-Hinton broth, 24 hours, 37° C.
Experimental: as §3, §4, §5, §6

N. farcinica IFM0284 = test: Antimicrobial activity (MIC), N. farcinica; assay type: cell-based; conditions: Nocardia farcinica; N. farcinica IFM0284, Muller-Hinton broth, 24 hours, 37° C.
Experimental: as §3, §4, §5, §6

[2] = system: Mycobacterium smegmatis ATCC607; test: Antimicrobial activity (MIC), Mycobacterium smegmatis; assay type: cell-based; conditions: Mycolicibacterium smegmatis; Mycobacterium smegmatis ATCC607, Muller-Hinton broth, 24 hours, 37° C.
Experimental: as §3, §4, §5, §6

P388 cell line = test: Growth inhibition of P388 cells (MTT assay); assay type: cell-based; conditions: Mus musculus, P388, 72 hours, 37° C.
Experimental: as §1, §2

N. nova IFM0290 = test: Antimicrobial activity (MIC), N. nova; assay type: cell-based; conditions: N. nova IFM0290, Muller-Hinton broth, 24 hours, 37° C.
Experimental: as §3, §4, §5, §6

Solubility = assay type: physicochemical
[3] = system: Staphylococcus aureus 209P; test: Antimicrobial activity (MIC), Staphylococcus aureus; assay type: cell-based; conditions: Muller-Hinton broth, 24 hours, 37° C.
Experimental: as §3, §4, §5, §6

M. flavescens ATCC14474 = test: Antimicrobial activity (MIC), M. flavescens; assay type: cell-based; conditions: Mycolicibacterium flavescens; M. flavescens ATCC14474, Muller-Hinton broth, 24 hours, 37° C.
Experimental: as §3, §4, §5, §6

[4] = system: cell lines L1210, P388, adriamycin resistant P388, KB and CHO; test: Growth inhibition of the tumor cell line panel (MTT assay), summary in words; assay type: cell-based
Experimental: as §1, §2

gram-positive bacteria = test: Antimicrobial activity, summary in words; assay type: cell-based; conditions: gram-positive bacteria of Table 6
Experimental: as §3, §4, §5, §6

N. brasiliensis IFM0236 = test: Antimicrobial activity (MIC), N. brasiliensis; assay type: cell-based; conditions: N. brasiliensis IFM0236, Muller-Hinton broth, 24 hours, 37° C.
Experimental: as §3, §4, §5, §6

[5] = system: N. otitidiscaviarum IFM0239; test: Antimicrobial activity (MIC), N. otitidiscaviarum; assay type: cell-based; conditions: N. otitidiscaviarum IFM0239, Muller-Hinton broth, 24 hours, 37° C.
Experimental: as §3, §4, §5, §6

[6] = system: Adriamycin resistant P388 cell line; test: Growth inhibition of adriamycin resistant P388 cells (MTT assay); assay type: cell-based; conditions: Mus musculus, Adriamycin resistant P388, 72 hours, 37° C.
Experimental: as §1, §2

[7] = system: Nocardia transvalensis IFM0333; test: Antimicrobial activity (MIC), Nocardia transvalensis; assay type: cell-based; conditions: Nocardia transvalensis IFM0333, Muller-Hinton broth, 24 hours, 37° C.
Experimental: as §3, §4, §5, §6

L1210 cell line = test: Growth inhibition of L1210 cells (MTT assay); assay type: cell-based; conditions: Mus musculus, L1210, 72 hours, 37° C.
Experimental: as §1, §2

KB cell line = test: Growth inhibition of KB cells (MTT assay); assay type: cell-based; conditions: Homo sapiens, 72 hours, 37° C.
Experimental: as §1, §2

M. phlei ATCC11758 = test: Antimicrobial activity (MIC), M. phlei; assay type: cell-based; conditions: Mycolicibacterium phlei; M. phlei ATCC11758, Muller-Hinton broth, 24 hours, 37° C.
Experimental: as §3, §4, §5, §6

[8] = in chloroform, ether and hexane
[9] = in water, methanol, ethanol, DMSO and ethyl acetate

SMILES | IC50 (CHO cell line) [µg/mL] | MIC (Bacillus subtilis PC1189) [µg/mL] | MIC [1] [µg/mL] | MIC (N. asteroides IFM0319) [µg/mL] | MIC (N. farcinica IFM0284) [µg/mL] | MIC [2] [µg/mL] | IC50 (P388 cell line) [µg/mL] | MIC (N. nova IFM0290) [µg/mL] | Solubility (Solubility; [8]) | Solubility (Solubility; [9]) | MIC [3] [µg/mL] | MIC (M. flavescens ATCC14474) [µg/mL] | growth inhibitory activities against the cell lines [4] | antimicrobial activity against gram-positive bacteria (gram-positive bacteria) | MIC (N. brasiliensis IFM0236) [µg/mL] | MIC [5] [µg/mL] | IC50 [6] [µg/mL] | MIC [7] [µg/mL] | IC50 (L1210 cell line) [µg/mL] | IC50 (KB cell line) [µg/mL] | further results
COc1ccc(O)c2c1C(=O)c1cc3c(c(O)c1C2=O)C(OC1CC(C)(N(C)C)C(OC(C)=O)C(C)O1)C(OC)C(C)(O)C3=O (stereo not drawn) [Compound 0624-B] | 18.6 (≈ 29.6 µM) | 3.13 (≈ 4.99 µM) | 12.5 (≈ 19.9 µM) | 3.13 (≈ 4.99 µM) | 12.5 (≈ 19.9 µM) | 3.13 (≈ 4.99 µM) | 0.59 (≈ 0.94 µM) | 1.56 (≈ 2.49 µM) | Insoluble | Soluble | 100 (≈ 159 µM) | 12.5 (≈ 19.9 µM) | have the growth inhibitory activities | wide spectrum of antimicrobial activity | > 100 | > 100 | 1.05 (≈ 1.67 µM) | 6.25 (≈ 9.96 µM) | 0.18 (≈ 0.287 µM) | 1.32 (≈ 2.1 µM) | MIC (M. phlei ATCC11758): 3.13 µg/mL (≈ 4.99 µM)
COc1ccc(O)c2c1C(=O)c1cc3c(c(O)c1C2=O)C(OC1CC(C)(N(C)C)C(O)C(C)O1)C(OC)C(C)(O)C3=O (stereo not drawn) [Compound 0624-A] | 12.3 (≈ 21 µM) | 6.25 (≈ 10.7 µM) | 1.56 (≈ 2.66 µM) | 1.56 (≈ 2.66 µM) | 3.13 (≈ 5.34 µM) | 1.56 (≈ 2.66 µM) | 0.47 (≈ 0.803 µM) | 0.78 (≈ 1.33 µM) | Insoluble | Soluble | 3.13 (≈ 5.34 µM) | 3.13 (≈ 5.34 µM) | have the growth inhibitory activities | wide spectrum of antimicrobial activity | 6.25 (≈ 10.7 µM) | 1.56 (≈ 2.66 µM) | 0.97 (≈ 1.66 µM) | 3.13 (≈ 5.34 µM) | 0.15 (≈ 0.256 µM) | 1.06 (≈ 1.81 µM) | MIC (M. phlei ATCC11758): 0.78 µg/mL (≈ 1.33 µM)
